Results published in ChEMBL document CHEMBL1909046, “DrugMatrix in vitro pharmacology data”.

Experiments:
[1] = DRUGMATRIX: Nicotinic Acetylcholine radioligand binding (ligand: [125I] Epibatidine); assay type: cell membranes, Membrane; settings: imr-32; Not Active = under 50% inhibition at 10 µM
Glucocorticoid receptor = molecular target: T1, Glucocorticoid receptor (Homo sapiens, UniProt P04150); settings: hela s3; also: in other assays of this panel Not Active means under 50% inhibition at 10 µM
T1 sequence (P04150 whole entry): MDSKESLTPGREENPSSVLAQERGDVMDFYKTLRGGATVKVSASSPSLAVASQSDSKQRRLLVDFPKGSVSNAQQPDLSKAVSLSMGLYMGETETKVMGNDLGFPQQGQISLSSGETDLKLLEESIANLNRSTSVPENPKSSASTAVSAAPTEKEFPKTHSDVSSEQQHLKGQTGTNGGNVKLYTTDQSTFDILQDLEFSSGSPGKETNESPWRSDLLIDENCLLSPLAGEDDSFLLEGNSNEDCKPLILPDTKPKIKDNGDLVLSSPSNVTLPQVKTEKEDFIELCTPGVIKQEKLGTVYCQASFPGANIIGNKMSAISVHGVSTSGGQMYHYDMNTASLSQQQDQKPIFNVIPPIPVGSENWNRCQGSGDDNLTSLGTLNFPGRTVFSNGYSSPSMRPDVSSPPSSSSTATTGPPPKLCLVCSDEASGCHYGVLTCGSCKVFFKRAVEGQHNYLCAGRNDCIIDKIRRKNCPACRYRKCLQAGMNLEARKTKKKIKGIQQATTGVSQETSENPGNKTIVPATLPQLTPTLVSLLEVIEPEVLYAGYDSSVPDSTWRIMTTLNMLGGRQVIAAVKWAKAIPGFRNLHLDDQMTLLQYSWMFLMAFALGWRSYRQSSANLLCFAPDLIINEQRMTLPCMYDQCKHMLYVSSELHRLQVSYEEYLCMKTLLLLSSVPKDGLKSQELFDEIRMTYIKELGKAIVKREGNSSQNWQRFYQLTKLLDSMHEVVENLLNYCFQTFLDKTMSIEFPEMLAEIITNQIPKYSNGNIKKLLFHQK

[2] = molecular target: T2, Amine oxidase [flavin-containing] A (Homo sapiens, UniProt P21397); assay: DRUGMATRIX: Monoamine Oxidase MAO-A enzyme inhibition (substrate: Kynuramine); parameters: species or system BTI-TN-5B1-4; settings: Not Active = under 50% inhibition at 10 µM
T2 sequence (P21397 whole entry): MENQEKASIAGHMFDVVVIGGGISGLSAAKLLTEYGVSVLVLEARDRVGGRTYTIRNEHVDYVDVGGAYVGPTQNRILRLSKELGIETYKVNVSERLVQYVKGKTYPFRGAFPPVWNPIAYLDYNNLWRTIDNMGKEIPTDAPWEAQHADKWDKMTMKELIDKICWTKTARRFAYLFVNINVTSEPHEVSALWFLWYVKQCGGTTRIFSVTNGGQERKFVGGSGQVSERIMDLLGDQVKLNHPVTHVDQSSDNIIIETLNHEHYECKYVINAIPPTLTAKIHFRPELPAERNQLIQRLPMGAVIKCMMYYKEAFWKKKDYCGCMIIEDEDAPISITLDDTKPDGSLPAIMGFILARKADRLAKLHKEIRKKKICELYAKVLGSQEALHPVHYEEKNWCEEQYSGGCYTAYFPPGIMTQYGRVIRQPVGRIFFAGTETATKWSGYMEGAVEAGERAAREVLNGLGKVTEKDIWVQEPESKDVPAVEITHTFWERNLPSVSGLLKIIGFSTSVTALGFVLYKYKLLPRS

[3] = DRUGMATRIX: Atrial Natriuretic Factor (ANF) radioligand binding (ligand: [125I] ANF (rat)); assay type: cell membranes, Cavia porcellus, Dunkin-Hartley, Adrenal gland, Membrane; settings: Not Active = under 50% inhibition at 10 µM
Substance-P receptor = Substance-P receptor (Homo sapiens, UniProt P25103); assay type: cell membranes, Membrane; settings: cho; also: in other assays of this panel Not Active means under 50% inhibition at 10 µM
Sequence of Substance-P receptor (P25103 whole entry): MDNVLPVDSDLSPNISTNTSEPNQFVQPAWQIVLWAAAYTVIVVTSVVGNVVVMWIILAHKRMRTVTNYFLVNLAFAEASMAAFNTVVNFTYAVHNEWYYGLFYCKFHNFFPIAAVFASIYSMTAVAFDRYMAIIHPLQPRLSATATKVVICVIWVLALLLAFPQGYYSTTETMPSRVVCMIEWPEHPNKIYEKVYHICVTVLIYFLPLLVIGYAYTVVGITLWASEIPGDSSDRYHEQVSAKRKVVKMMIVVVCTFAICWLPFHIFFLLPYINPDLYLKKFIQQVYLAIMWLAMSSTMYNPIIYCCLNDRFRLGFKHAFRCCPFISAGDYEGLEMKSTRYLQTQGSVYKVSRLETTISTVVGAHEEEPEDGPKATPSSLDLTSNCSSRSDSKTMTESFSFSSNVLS

Calcitonin receptor = molecular target: T3, Calcitonin receptor (Homo sapiens, UniProt P30988); assay type: cell membranes, Membrane; settings: t47d; also: in other assays of this panel Not Active means under 50% inhibition at 10 µM
T3 sequence (P30988 whole entry): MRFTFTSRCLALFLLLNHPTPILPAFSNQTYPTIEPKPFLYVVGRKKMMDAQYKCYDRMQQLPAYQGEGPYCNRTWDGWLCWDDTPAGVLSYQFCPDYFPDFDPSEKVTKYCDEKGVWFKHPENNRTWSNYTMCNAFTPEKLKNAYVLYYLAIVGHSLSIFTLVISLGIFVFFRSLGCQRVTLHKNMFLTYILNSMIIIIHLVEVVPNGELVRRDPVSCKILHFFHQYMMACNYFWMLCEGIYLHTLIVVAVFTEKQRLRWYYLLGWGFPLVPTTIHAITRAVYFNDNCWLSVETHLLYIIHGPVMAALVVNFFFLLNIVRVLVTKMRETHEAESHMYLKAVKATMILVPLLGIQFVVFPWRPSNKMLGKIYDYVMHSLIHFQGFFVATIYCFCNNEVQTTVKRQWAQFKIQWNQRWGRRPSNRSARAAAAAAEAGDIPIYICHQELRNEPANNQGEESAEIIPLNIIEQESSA

[4] = molecular target: T4, Type-2 angiotensin II receptor (Homo sapiens, UniProt P50052); assay type: cell-based; settings: cho-k1; also: in other assays of this panel Not Active means under 50% inhibition at 10 µM
T4 sequence (P50052 whole entry): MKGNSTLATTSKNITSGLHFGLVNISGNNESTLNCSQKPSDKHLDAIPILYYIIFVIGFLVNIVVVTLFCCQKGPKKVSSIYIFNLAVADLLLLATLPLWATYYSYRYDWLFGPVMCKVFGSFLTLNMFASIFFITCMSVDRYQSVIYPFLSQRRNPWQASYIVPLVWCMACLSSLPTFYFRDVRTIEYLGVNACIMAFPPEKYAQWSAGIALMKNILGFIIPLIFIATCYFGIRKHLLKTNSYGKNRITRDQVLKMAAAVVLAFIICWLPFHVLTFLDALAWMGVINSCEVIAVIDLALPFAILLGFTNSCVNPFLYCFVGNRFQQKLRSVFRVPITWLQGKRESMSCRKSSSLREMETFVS

[5] = molecular target: T5, C-X-C chemokine receptor type 2 (Homo sapiens, UniProt P25025); assay type: cell membranes, Membrane; settings: cho-k1; also: in other assays of this panel Not Active means under 50% inhibition at 10 µM
T5 sequence (P25025 whole entry): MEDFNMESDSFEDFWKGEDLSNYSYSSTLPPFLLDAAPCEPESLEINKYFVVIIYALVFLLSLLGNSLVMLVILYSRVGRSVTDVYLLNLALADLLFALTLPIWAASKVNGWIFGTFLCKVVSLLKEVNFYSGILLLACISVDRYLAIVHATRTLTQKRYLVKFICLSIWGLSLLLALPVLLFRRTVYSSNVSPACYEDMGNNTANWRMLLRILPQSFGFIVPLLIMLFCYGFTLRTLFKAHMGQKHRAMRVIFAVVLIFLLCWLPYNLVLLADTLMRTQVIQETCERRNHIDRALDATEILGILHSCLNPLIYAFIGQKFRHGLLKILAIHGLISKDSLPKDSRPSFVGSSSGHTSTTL

[6] = DRUGMATRIX: Phorbol Ester radioligand binding (ligand: [3H] PDBu); assay type: cell membranes, Mus musculus, ICR, Brain, Membrane; settings: Not Active = under 50% inhibition at 10 µM

SMILES | IC50 [1] | Ki [1] | IC50 (Glucocorticoid receptor) | IC50 ([2]; bti-tn-5b1-4) | IC50 [3] | Ki [3] | IC50 (Substance-P receptor) | IC50 (Calcitonin receptor) | IC50 [4] | IC50 [5] | IC50 [6] | Ki [6] | IC50 ([2]; read-out: IC50) [nM]
CCOC(=O)n1ccn(C)c1=S [CARBIMAZOLE] | Not Active | Not Active | Not Active | Not Active | Not Active | Not Active | Not Active | Not Active | Not Active | Not Active | Not Active | Not Active | –
O=C(O)c1cc(=O)c2c(OCC(O)COc3cccc4oc(C(=O)O)cc(=O)c34)cccc2o1 [CROMOLYN] | Not Active | Not Active | – | Not Active | Not Active | Not Active | Not Active | Not Active | Not Active | Not Active | Not Active | Not Active | –
N=C(N)N/N=C/c1c(Cl)cccc1Cl [GUANABENZ] | Not Active | Not Active | – | – | Not Active | Not Active | Not Active | Not Active | Not Active | Not Active | Not Active | Not Active | 1790
COc1ccc2cc(CCC(C)=O)ccc2c1 [NABUMETONE] | Not Active | Not Active | Not Active | – | Not Active | Not Active | Not Active | Not Active | Not Active | Not Active | Not Active | Not Active | –
CC(C(=O)O)c1ccc(CC2CCCC2=O)cc1 (centres undefined) [LOXOPROFEN] | Not Active | Not Active | – | Not Active | Not Active | Not Active | Not Active | Not Active | Not Active | Not Active | Not Active | Not Active | –
COc1ccc(Cc2nccc3cc(OC)c(OC)cc23)cc1OC [PAPAVERINE] | Not Active | Not Active | – | Not Active | Not Active | Not Active | Not Active | Not Active | Not Active | Not Active | Not Active | Not Active | –
O=c1cc(-c2ccccc2)oc2ccc3ccccc3c12 [BETA-NAPHTHOFLAVONE] | Not Active | Not Active | – | Not Active | Not Active | Not Active | Not Active | Not Active | Not Active | Not Active | Not Active | Not Active | –
CC(=O)O[C@]1(C(C)=O)CC[C@H]2[C@@H]3C=C(Cl)C4=CC(=O)[C@@H]5C[C@@H]5[C@]4(C)[C@H]3CC[C@@]21C [CYPROTERONE ACETATE] | Not Active | Not Active | – | Not Active | Not Active | Not Active | Not Active | Not Active | Not Active | Not Active | Not Active | Not Active | –
